Measured values: publication PMC6934184, “Selective DNA-PKcs inhibition extends the therapeutic index of localized radiotherapy and chemotherapy” (The Journal of Clinical Investigation, 2019)

Biological target: T1, EPHB3 (Homo sapiens, UniProt P54753)
T1 construct: purchased Thermo Fisher Scientific (Life Technologies) SelectScreen
Assay: SelectScreen Z'LYTE
Type: biochemical
Method in brief: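 SelectScreen broad panel; activity (Z'LYTE, Adapta) plus binding formats. ATP: Km app for CSF1R Z'LYTE; 10 for CAMK1 Adapta. Readout = % per kinase.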

T1 sequence (P54753 34-998): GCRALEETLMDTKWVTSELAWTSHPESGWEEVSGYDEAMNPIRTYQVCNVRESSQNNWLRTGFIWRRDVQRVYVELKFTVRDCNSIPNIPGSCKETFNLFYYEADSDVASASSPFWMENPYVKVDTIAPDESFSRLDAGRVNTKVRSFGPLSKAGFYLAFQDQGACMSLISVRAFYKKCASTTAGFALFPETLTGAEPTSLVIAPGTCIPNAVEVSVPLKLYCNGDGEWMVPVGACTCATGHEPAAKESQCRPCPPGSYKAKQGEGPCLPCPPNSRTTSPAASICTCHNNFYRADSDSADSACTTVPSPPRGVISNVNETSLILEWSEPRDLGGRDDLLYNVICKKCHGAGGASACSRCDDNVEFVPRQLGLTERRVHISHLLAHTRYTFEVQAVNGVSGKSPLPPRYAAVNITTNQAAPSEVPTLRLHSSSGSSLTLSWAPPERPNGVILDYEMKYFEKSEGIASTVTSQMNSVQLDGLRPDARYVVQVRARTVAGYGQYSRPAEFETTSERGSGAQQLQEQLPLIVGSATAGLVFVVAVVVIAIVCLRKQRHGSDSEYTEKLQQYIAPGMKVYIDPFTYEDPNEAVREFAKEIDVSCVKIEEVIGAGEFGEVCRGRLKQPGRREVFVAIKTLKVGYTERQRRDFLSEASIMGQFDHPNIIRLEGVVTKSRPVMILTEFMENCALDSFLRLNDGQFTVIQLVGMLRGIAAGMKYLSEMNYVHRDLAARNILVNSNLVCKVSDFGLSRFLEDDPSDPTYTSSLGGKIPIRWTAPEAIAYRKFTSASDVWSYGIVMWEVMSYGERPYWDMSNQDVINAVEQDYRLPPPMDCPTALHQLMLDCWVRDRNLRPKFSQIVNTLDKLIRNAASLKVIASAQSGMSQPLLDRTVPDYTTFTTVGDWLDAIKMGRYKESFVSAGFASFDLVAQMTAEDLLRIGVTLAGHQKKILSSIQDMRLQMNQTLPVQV

In the case of CN(C(=O)CN1CCOCC1)c1ccc2sc3c(-c4cccc5c(=O)cc(N6CC7CCC(C6)O7)oc45)cccc3c2c1 [NU5455], the inhibition at 1 µM is reported as 1.1%.
